This note sets out measurements from PMC3224971, “An exo-cell assay for examining real-time γ-secretase activity and inhibition” (Molecular Neurodegeneration, 2009).

pIC50: −log10 of the molar value.

One assay relates to A20 mouse lymphoma cells. The experiment in a line: lymphoma proliferation assay ([3H]thymidine incorporation). The class given is cell-based. As to conditions: for inhibition of cellular proliferation (in words): 48 hours of treatment. The procedure:
A20 mouse lymphoma cells were seeded in a 96-well plate at a concentration of 5 × 10^5 cells/ml in 100 μl RPMI media containing 2% fetal bovine serum. An additional 100 μl of media containing DMSO or γ-secretase inhibitor was added and incubated for 48 hours at 37°C. After this incubation, the cells were incubated for 5 hours with 2 μCi/ml [^3H]thymidine at 37°C. Proliferative response was then evaluated by harvesting the tritiated DNA from cells using a Skatron cell harvester and proliferation assessed as a function of [^3H]thymidine incorporation measured on a β-counter.

Assay [1] deals with T1, γ-secretase (Homo sapiens, UniProt P49768). The experiment in a line: extended exo-cell γ-secretase assay in HeLa cells. The class given is cell-based. On the procedure: (§1) Cells were seeded at their indicated concentration in 96-well plates and allowed to attach overnight (Fig. 1c). The next day, media was removed and cells were washed once with PBS. Fresh media was then added containing 0.25% CHAPSO detergent, Sb4 substrate to a final concentration of 1 μM, and 1% DMSO or γ-secretase inhibitor. This was incubated for 2.5 hours at 37°C. Media was removed and cell debris was pelleted from this media for 5 min. at 3,500 rpm's. Supernatant was then added to ruthenylated G2-10* antibody that recognizes cleaved product, but not uncleaved substrate. This was incubated for an additional 2 hours at room temperature. Finally, magnetic streptavidin beads were added to a final concentration of 80 μg/ml and incubated for 30 min. at room temperature. Assay buffer was added to the samples and γ-secretase-mediated cleavage of substrate was monitored using electrochemiluminescence (ECL). Protocol for HTRF detection can be found below.
Conversely, an extended exo-cell assay was performed whereby cells were seeded and allowed to attach overnight as previously described. However, the next day media was removed and replaced with fresh media containing 1% DMSO or γ-secretase inhibitor. These were incubated for 24 hours at 37°C. Following this incubation, the cells were washed once with PBS and fresh media containing detergent and substrate were added. […]

Assay [2] has as its target T1, γ-secretase. Put plainly: exo-cell γ-secretase assay in HeLa cells. Type of assay: cell-based. As to conditions: HeLa cells incubated simultaneously with GSI, 1 μM Sb4 and 0.25% CHAPSO, 2.5 hours; ECL detection. On the procedure:
as §1
Homogeneous time-resolved fluorescence (HTRF) was also incorporated for the exo-cell assay detection of cleaved substrate. […] Exo-cell supernatent and HTRF detection mix were incubated together for 5 hours in a 384-well plate and then activity was measured by stimulating at 337 nm and reading at 665 nm.

Assay [3] addresses T2, γ-secretase (Mus musculus, UniProt P49769). The experiment in a line: cell-based γ-secretase assay in N2A cells stably overexpressing APP. Particulars: 24 hours with GSI, Aβ 40-site cleavage, ECL detection. On the procedure:
The cell-based assay utilized N2A mouse neuroblastoma cells that stably overexpress the amyloid precursor protein. These were incubated with γ-secretase inhibitors in a final concentration of 1% DMSO for 24 hours. Following incubation, the supernatant was removed from the cells and assayed for Aβ 40-site cleaved APP product using ruthenylated G2-10* antibody as well as biotinylated 4G8 antibody.

The target in assay [4] is T1, γ-secretase. The experiment in a line: in vitro γ-secretase assay with Sb4 substrate and solubilized γ-secretase. Type of assay: biochemical. Particulars: Sb4 substrate, 0.25% CHAPSO, solubilized γ-secretase, 2.5 hours at 37°C, ECL detection. On the procedure: The in vitro and cell-based γ-secretase assays were performed similarly as previously described. Briefly, the recombinant Sb4 substrate was incubated for 2.5 hours at 37°C in pH 7.0 PIPES buffer in the presence of 0.25% CHAPSO detergent and solubilized γ-secretase at a final concentration of 40 ng/ul. The detection of cleaved substrate was determined using ruthenylated G2-10* antibody. Due to biotinylation of the Sb4 substrate, this eliminated the additional use of 6E10 biotinylated antibody from the original protocol.

The target in assay [5] is T2, γ-secretase. The experiment in a line: real-time exo-cell γ-secretase assay in A20 mouse lymphoma cells. The class given is cell-based. Particulars: 300 nM, 48 hours treatment. The procedure: Figure 4 Examination of real-time γ-secretase activity in A20 lymphoma and in primary B-CLL patient samples. (a) Correlation between real-time inhibition of γ-secretase activity and GSI-mediated inhibition of A20 mouse lymphoma proliferation. Two 96-well plates were seeded with 50,000 A20 mouse lymphoma cells per well in 100 μl RPMI media. To each of these plates an additional 100 μl of media was added containing DMSO or GSI-34 to indicated final concentration. These plates were incubated for 48 hours at 37°C. Following this incubation, one plate was used in a real-time exo-cell assay to quantitate the real-time inhibition of γ-secretase in A20 cells. Briefly, A20 cells were pelleted and media removed. Fresh media containing 1 μM Sb4 substrate and 0.25% CHAPSO detergent were added and the exo-cell assay was performed. For each assay point n = 4, and s.d. is plotted. Additionally, to the other 96-well plate 2 μCi/ml [^3H]thymidine was incubated with the cells for 5 hours. Following 5-hour incubation at 37°C, the amount of tritiated DNA was quantified on a β-counter. For each proliferation assay point n = 10, and s.d. is plotted. (b) Real-time γ-secretase activity in primary B-CLL patient samples. […] Assay buffer was added to the samples and γ-secretase-mediated cleavage of substrate was monitored using electrochemiluminescence (ECL). […]

As for `CC(C)C[C@H](NC(=O)[C@H](Cc1ccccc1)C[C@@H](O)[C@H](Cc1ccccc1)NC(=O)OC(C)(C)C)C(=O)N[C@@H](Cc1ccccc1)C(N)=O` [L-685,458], the “inhibition of cellular proliferation (in words)” value with A20 mouse lymphoma cells is listed as “able to inhibit cellular proliferation”.

For the molecule `CC(NC(=O)Cc1cc(F)cc(F)c1)C(=O)NC1N=C(c2ccccc2)c2ccccc2N(C)C1=O` (stereo not shown) [Compound E], the pIC50 was 8.55 on γ-secretase [1] (HeLa cells incubated with GSI for 24 hours, washed, then Sb4 and CHAPSO, ECL detection); 8.42 at γ-secretase [2]; 8.34 against γ-secretase [3]. For the same molecule, in the assay on A20 mouse lymphoma cells, the “inhibition of cellular proliferation (in words)” value is recorded as “able to inhibit cellular proliferation”.

Molecule `O=C(COc1ccc(F)cc1)Nc1ccc2c(c1)CC1CCC(C2)C1NS(=O)(=O)c1ccc(Cl)s1` (stereo not shown) [GSI-34] had a pIC50 at γ-secretase [4] of 9.00. For the same molecule, the “inhibition of γ-secretase activity (in words)” value at γ-secretase [1] (HeLa cells treated 24 hours with varying concentrations) is “Dose-dependent inhibition”. In addition, the inhibition at 0.3 µM against γ-secretase [5] is about 80%. For the same molecule, the “reduction of cellular proliferation” value in the assay with A20 mouse lymphoma cells (300 nM, 48 hours treatment) is 30%. In addition, the “inhibition of cellular proliferation (in words)” value in the assay on A20 mouse lymphoma cells is recorded as “able to inhibit cellular proliferation”.
